Source: article PMC12196358, “Indole Alkaloids and Phenolic Amides from the Rhizomes of Cimicifuga heracleifolia and Their In Vitro Soluble Epoxide Hydrolase (sEH) Inhibitory Activity” (Plants, 2025)
“Also recorded” adds a separate entry of the source.

Columns and labels:
[1] = target: T1, soluble epoxide hydrolase (sEH) (Homo sapiens, UniProt P34913); assay: sEH inhibitory activity, fluorescence-based assay with PHOME as substrate; assay type: biochemical; details: recombinant sEH; for IC50: 37 °C, mean ± SD (n = 3); for sEH inhibitory activity (in words): compounds tested 0.1–100.0 μM
T1 construct: purchased Cayman Chemical Company 100116
T1 sequence (P34913 1-555): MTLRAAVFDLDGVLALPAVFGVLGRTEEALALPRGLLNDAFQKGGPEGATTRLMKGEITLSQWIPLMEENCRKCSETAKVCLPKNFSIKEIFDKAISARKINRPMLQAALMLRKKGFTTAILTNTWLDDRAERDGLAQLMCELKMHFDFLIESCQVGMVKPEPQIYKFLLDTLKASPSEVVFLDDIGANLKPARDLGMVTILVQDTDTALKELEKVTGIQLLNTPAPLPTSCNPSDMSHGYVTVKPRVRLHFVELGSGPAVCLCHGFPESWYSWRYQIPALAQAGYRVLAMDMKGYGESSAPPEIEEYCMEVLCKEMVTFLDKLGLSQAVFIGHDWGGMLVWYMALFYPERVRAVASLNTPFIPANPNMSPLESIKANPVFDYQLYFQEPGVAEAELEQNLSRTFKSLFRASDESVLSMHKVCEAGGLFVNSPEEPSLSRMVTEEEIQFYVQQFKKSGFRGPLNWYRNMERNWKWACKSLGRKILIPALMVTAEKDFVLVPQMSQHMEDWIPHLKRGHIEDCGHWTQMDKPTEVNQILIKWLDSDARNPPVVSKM
Method: The sEH inhibitory activities of compounds 1−10 were evaluated using a fluorescence-based assay with 3-phenyl-cyano(6-methoxy-2-naphthalenyl)methyl ester-2-oxiraneacetic acid (PHOME) as the substrate.
The epoxide hydrolase (sEH) enzyme is a recombinant enzyme with a concentration of 0.8 mg/mL, purchased from the Cayman Chemical Company in the United States (catalogue number: 100116, batch number: 069065) and stored at −80 °C to ensure its activity.
The enzymatic reactions were performed in a 96-well plate at 37 °C, where sEH hydrolyzed the fluorogenic substrate PHOME (MedChemExpress LLC., Princeton, NJ, USA) in the presence of each compound. The fluorescence signals were measured at an excitation wavelength of 330 nm and an emission wavelength of 465 nm. Wells containing the substrate alone (without the test compounds) served as negative controls. […] The inhibitory activity of each compound was evaluated based on the reduction in the formation of 6-methoxy-2-naphthaldehyde, a fluorescent product generated by PHOME hydrolysis.

[2] = target: T1, soluble epoxide hydrolase (sEH); assay: sEH kinetic study (Lineweaver–Burk plots, varying inhibitor and PHOME concentrations); assay type: biochemical; details: compound 1 to 5 μM, PHOME 1 to 20 μM
Method: Furthermore, the inhibition mechanisms of phenolic amides 6–8 and 10 were elucidated by kinetic analysis using various concentrations of compounds and the substrate, PHOME.
The inhibitory behaviour of compounds 6–8 and 10 against sEH was examined by analyzing kinetic changes at varying inhibitor concentrations. Each compound was tested at concentrations ranging from 1 to 5 μM, whereas the substrate PHOME was applied at concentrations ranging from 1 to 20 μM. The experimental data were fitted to the Michaelis–Menten equation to evaluate the kinetic parameters. The mode of inhibition was further determined using Lineweaver–Burk plots. Data were analyzed and plotted using GraphPad Prism 7 (GraphPad Software Inc., San Diego, CA, USA).

| SMILES | IC50 [1] [µM] | sEH inhibitory activity (in words) [1] | mechanism (mode) of sEH inhibition [2] |
| --- | --- | --- | --- |
| COc1ccc2c(C(=O)C=C(C)C)c[nH]c2c1 [Compound 1, 6-methoxy-3-(3-methyl-1-oxo-2-butenyl) 1H indole] | > 100 | lack of inhibitory activity |  |
| CC(C)=CC(=O)c1c[nH]c2ccccc12 [Compound 2, 3-(3-methyl-1-oxo-2-butenyl) 1H indole] | > 100 | lack of inhibitory activity |  |
| CC(C)CC[C@]1(O)C(=O)N([C@@H]2O[C@H](CO)[C@@H](O)[C@H](O)[C@H]2O)c2ccccc21 [Compound 3, (3R)-1-(β-D-glucopyranosyl)-3-hydroxy-3-(3-methylbutyl)-2-oxindole] | > 100 |  |  |
| CC(=O)NCCc1ccc(O)c(OC2OC(CO)C(O)C(O)C2O)c1 [Compound 4, N-acetyldopamine-3-O-β-D-allopyranoside] | > 100 | did not show significant inhibitory activity |  |
| CC(=O)NCCc1ccc(O)c(O[C@@H]2O[C@H](CO)[C@@H](O)[C@H](O)[C@H]2O)c1 [Compound 5, N-acetyldopamine-3-O-β-D-glucopyranoside] | > 100 | did not show significant inhibitory activity |  |
| COc1cc(C=CC(=O)NCCc2ccc(OC3OC(CO)C(O)C(O)C3O)c(OC)c2)ccc1O (centres unmarked) [Compound 9, cimicifugamide C] | > 100 | did not show significant inhibitory activity; also recorded: no sEH inhibitory activity |  |

The next compounds have a lower IC50 [1] than those just listed; values first:

| IC50 [1] [µM] | sEH inhibitory activity (in words) [1] | mechanism (mode) of sEH inhibition [2] | SMILES |
| --- | --- | --- | --- |
| 8.74 ± 0.42 | most potent sEH inhibitory activity | non-competitive | COc1cc(/C=C/C(=O)NCCc2ccc(O)c(O)c2)ccc1O[C@@H]1O[C@H](CO)[C@H](O)[C@H](O)[C@H]1O [Compound 6, cimicifugamide A] |
| 15.63 ± 0.1 | moderate inhibitory activity | mixed-type competitive | COc1cc(CCNC(=O)/C=C/c2ccc(O[C@@H]3O[C@H](CO)[C@H](O)[C@H](O)[C@H]3O)c(OC)c2)ccc1O [Compound 7, cimicifugamide] |
| 20.6 ± 0.89 | moderate inhibitory activity | mixed-type competitive | COc1cc(/C=C/C(=O)NCCc2ccc(O)cc2)ccc1O[C@@H]1O[C@H](CO)[C@H](O)[C@H](O)[C@H]1O [Compound 8, demethoxycimicifugamide] |
| 17.2 ± 0.31 | moderate inhibitory activity | uncompetitive | COc1cc(/C=C/C(=O)NCCc2ccc(O)cc2)ccc1O [Compound 10, N-trans-feruloyl tyramine] |
